According to ChEMBL document CHEMBL5331046, “Disulfiram and dithiocarbamate analogues demonstrate promising antischistosomal effects” (Eur J Med Chem, 2022):
Calls of active or inactive are those of the source. No cut-off for these calls is given here.

Legend:
Schistosoma mansoni [1] = assay: Antischistosomal activity against Schistosoma mansoni couples assessed as reduction in pairing stability at 100 uM measured upto 72 hrs by bright field microscopy; format: functional
Schistosoma mansoni [2] = assay: Antischistosomal activity against Schistosoma mansoni couples assessed as inhibition of eggs production at 100 uM measured upto 72 hrs by bright field microscopy; format: functional
Schistosoma mansoni [3] = assay: Antischistosomal activity against Schistosoma mansoni couples at 100 uM measured upto 72 hrs by bright field microscopy; format: functional, organism-based
Schistosoma mansoni [4] = assay: Antischistosomal activity against Schistosoma mansoni couples at 25 uM measured upto 72 hrs by bright field microscopy; format: functional, organism-based
Schistosoma mansoni [5] = assay: Antischistosomal activity against Schistosoma mansoni couples assessed as decrease in parasite motility at 15 uM measured upto 72 hrs by bright field microscopy; format: functional
Schistosoma mansoni [6] = assay: Antischistosomal activity against Schistosoma mansoni couples assessed as decrease in parasite motility at 100 uM measured upto 72 hrs by bright field microscopy; format: functional
Schistosoma mansoni [7] = assay: Antischistosomal activity against Schistosoma mansoni couples assessed as eggs deformation at 100 uM measured upto 72 hrs by bright field microscopy; format: functional
Schistosoma mansoni [8] = assay: Antischistosomal activity against Schistosoma mansoni couples assessed as decrease in parasite vitality at 15 uM measured upto 72 hrs by bright field microscopy; format: functional; set-up: scale not given: the % may be the effect or the level left
Schistosoma mansoni [9] = assay: Antischistosomal activity against Schistosoma mansoni couples assessed as inhibition of eggs production at 15 uM measured upto 72 hrs by bright field microscopy; format: functional; set-up: scale not given: the % may be the effect or the level left
Schistosoma mansoni [10] = assay: Antischistosomal activity against Schistosoma mansoni couples assessed as decrease in parasite motility at 10 uM measured upto 72 hrs by bright field microscopy; format: functional, organism-based
Schistosoma mansoni [11] = assay: Antischistosomal activity against Schistosoma mansoni couples assessed as induction of phenotypes at 10 uM measured upto 72 hrs by bright field microscopy; format: functional, organism-based
Schistosoma mansoni [12] = assay: Antischistosomal activity against Schistosoma mansoni couples assessed as decrease in pairing stability at 15 uM measured upto 72 hrs by bright field microscopy; format: functional; set-up: scale not given: the % may be the effect or the level left
Schistosoma mansoni [13] = assay: Antischistosomal activity against Schistosoma mansoni couples assessed as decrease in parasite motility at 50 uM measured upto 72 hrs by bright field microscopy; format: functional; set-up: scale not given: the % may be the effect or the level left
LS174T = assay: Cytotoxicity against human LS174T cells assessed as reduction in cell viability at 100 uM by WST-1 assay; format: toxicity, cell-based
HepG2 = assay: Cytotoxicity against human HepG2 cells assessed as reduction in cell vaibility at 100 uM by WST-1 assay; format: toxicity, cell-based; conditions: hepg2, 100 µM
Schistosoma mansoni [14] = assay: Antischistosomal activity against Schistosoma mansoni couples assessed as tegument damage at 100 uM measured upto 72 hrs by bright field microscopy; format: functional, organism-based

Which Activity (Schistosoma mansoni [1]) does the source give for `CCN(CC)C(=S)SCC(N)=O` here?
Its Activity is “Active”.

Which results are given for `CCN(CC)C(=S)SCCCCc1ccccc1`?
Activity (Schistosoma mansoni [2]): Active; Activity (Schistosoma mansoni [1]): inactive

With `S=C(SCc1ccccc1)N1CCc2ccccc2C1` as the compound, how does the Activity (Schistosoma mansoni [3]) read?
Its Activity is “inactive”.

`O=C(C1CC1)N1CCN(C(=S)SCc2ccc([N+](=O)[O-])cc2)CC1` was tested. Which Activity (Schistosoma mansoni [4]) did it give?
The Activity was “inactive”.

Which Activity (Schistosoma mansoni [5]) does the source give for `O=[N+]([O-])c1ccc(CSC(=S)N2CCN(S(=O)(=O)c3cccc4ccccc34)CC2)cc1` here?
The Activity was “inactive”.

`CCN(CC)C(=S)SCc1ccc(-c2ccccc2)cc1` was tested. Which Activity (Schistosoma mansoni [2]) did it give?
Its Activity is “Active”.

With `CCN(CC)C(=S)SCCCc1ccccc1` as the compound, how does the Activity (Schistosoma mansoni [6]) read?
The Activity was “inactive”.

What about the Activity (Schistosoma mansoni [2]) of the same compound?
Its Activity is 100%.

What about the Activity (Schistosoma mansoni [1]) of the same compound?
Its Activity is 100%.

For `CCN(CC)C(=S)SCCc1ccccc1`, which Activity (Schistosoma mansoni [6]) is on record?
The Activity was “inactive”.

What about the Activity (Schistosoma mansoni [2]) of the same compound?
Its Activity is 100%.

What about the Activity (Schistosoma mansoni [1]) of the same compound?
Its Activity is 100%.

`CCN(CC)C(=S)SCCN1CCOCC1` was tested. Which Activity (Schistosoma mansoni [7]) did it give?
The Activity was “Active”.

What about the Activity (Schistosoma mansoni [1]) of the same compound?
The Activity was “inactive”.

`O=[N+]([O-])c1ccc(CSC(=S)N2CCN(S(=O)(=O)C3CC3)CC2)cc1` was tested. Which Activity (Schistosoma mansoni [5]) did it give?
Its Activity is 50%.

And the Activity (Schistosoma mansoni [8])?
The Activity was 90%.

And the Activity (Schistosoma mansoni [9])?
The Activity was 40%.

What about the Activity (Schistosoma mansoni [10]) of the same compound?
Its Activity is “Active”.

What about the Activity (Schistosoma mansoni [11]) of the same compound?
The Activity was “Active”.

And the Activity (Schistosoma mansoni [12])?
Its Activity is 20%.

For `CCN(CC)C(=S)NCc1ccccc1`, which Activity (Schistosoma mansoni [3]) is on record?
Its Activity is “inactive”.

Which results are given for `CCN(CC)C(=S)OCc1ccccc1`?
Activity (Schistosoma mansoni [2]): 100%; Activity (Schistosoma mansoni [1]): 50%

For `CCN(CC)C(=S)SCc1cccc2ccccc12`, which Activity (Schistosoma mansoni [13]) is on record?
Its Activity is roughly 30%.

For `CCN(CC)/C(=N/C#N)NCc1ccccc1`, which Activity (Schistosoma mansoni [3]) is on record?
The Activity was “inactive”.

How did the Activity (Schistosoma mansoni [13]) turn out when `CCN(CC)C(=S)SCCC1OCCCO1` was run?
Its Activity is “inactive”.

For `CCN(CC)C(=O)OCc1ccccc1`, which Activity (Schistosoma mansoni [7]) is on record?
Its Activity is roughly 100%.

With `CCN(CC)C(=S)Sc1ccccc1` as the compound, how does the Activity (Schistosoma mansoni [2]) read?
Its Activity is “Active”.

And the Activity (Schistosoma mansoni [1])?
The Activity was “inactive”.

For `CCN(CC)C(=S)SCc1ccc(C(=O)O)cc1`, which Activity (Schistosoma mansoni [3]) is on record?
Its Activity is “inactive”.

Which Activity (Schistosoma mansoni [5]) does the source give for `CCS(=O)(=O)N1CCN(C(=S)SCc2ccc([N+](=O)[O-])cc2)CC1` here?
Its Activity is 50%.

And the Activity (Schistosoma mansoni [8])?
The Activity was 90%.

What about the Activity (Schistosoma mansoni [9]) of the same compound?
The Activity was 40%.

What about the Activity (Schistosoma mansoni [10]) of the same compound?
Its Activity is “inactive”.

What about the Activity (Schistosoma mansoni [11]) of the same compound?
Its Activity is “inactive”.

And the Activity (Schistosoma mansoni [12])?
Its Activity is 20%.

Which results are given for `S=C(SCc1ccccc1)n1ccnc1`?
Activity (Schistosoma mansoni [2]): Active; Activity (Schistosoma mansoni [1]): Active

How did the Activity (Schistosoma mansoni [3]) turn out when `CCC(CC)C(=O)SCc1ccccc1` was run?
Its Activity is “Active”.

With `CCN(CC)C(=S)SCCCCCc1ccccc1` as the compound, how does the Activity (Schistosoma mansoni [2]) read?
The Activity was “Active”.

What about the Activity (Schistosoma mansoni [1]) of the same compound?
The Activity was “inactive”.

For `CC(=O)N1CCN(C(=S)SCc2ccc([N+](=O)[O-])cc2)CC1`, which Activity (Schistosoma mansoni [4]) is on record?
The Activity was “inactive”.

`O=C(c1ccco1)N1CCN(C(=S)SCc2ccc([N+](=O)[O-])cc2)CC1` was tested. Which Activity (Schistosoma mansoni [4]) did it give?
The Activity was “inactive”.

Which Activity (Schistosoma mansoni [3]) does the source give for `CCC(CC)C(=S)SCc1ccccc1` here?
The Activity was “Active”.

How did the Activity (Schistosoma mansoni [1]) turn out when `CCN(CC)C(=S)SCC(=O)O` was run?
The Activity was “Active”.

`S=C(SCc1ccccc1)N1CCCc2ccccc21` was tested. Which Activity (Schistosoma mansoni [3]) did it give?
Its Activity is “inactive”.

With `CCCCS(=O)(=O)N1CCN(C(=S)SCc2ccc([N+](=O)[O-])cc2)CC1` as the compound, how does the Activity (Schistosoma mansoni [5]) read?
Its Activity is 50%.

What about the Activity (Schistosoma mansoni [8]) of the same compound?
Its Activity is 90%.

What about the Activity (Schistosoma mansoni [9]) of the same compound?
The Activity was 40%.

What about the Activity (Schistosoma mansoni [10]) of the same compound?
Its Activity is “Active”.

And the Activity (Schistosoma mansoni [11])?
Its Activity is “Active”.

And the Activity (Schistosoma mansoni [12])?
Its Activity is 20%.

With `CCN(CC)C(=O)SCc1ccccc1` as the compound, how does the Activity (Schistosoma mansoni [2]) read?
Its Activity is roughly 90%.

For `CCN(CC)C(=S)CCc1ccccc1`, which Activity (Schistosoma mansoni [3]) is on record?
Its Activity is “inactive”.

Which Activity (Schistosoma mansoni [3]) does the source give for `S=C(SCc1ccccc1)N1CCN(c2ncccn2)CC1` here?
The Activity was “Active”.

For `S=C(SCc1ccccc1)n1cnnc1`, which Activity (Schistosoma mansoni [3]) is on record?
The Activity was “inactive”.

Which Activity (Schistosoma mansoni [3]) does the source give for `S=C(SCc1ccccc1)N1CCN(/C=C/c2ccccc2)CC1` here?
Its Activity is “inactive”.

`S=C(SCc1ccccc1)N1CCCCC1` was tested. Which Activity (Schistosoma mansoni [2]) did it give?
The Activity was “Active”.

And the Activity (Schistosoma mansoni [1])?
Its Activity is “Active”.

For `CCN(CC)C(=S)SC` [METHYLDIETHYL CARBAMODITHIOATE], which Activity (LS174T) is on record?
Its Activity is “Non-Toxic”.

And the Activity (Schistosoma mansoni [3])?
Its Activity is “inactive”.

And the Activity (HepG2)?
The Activity was “Non-Toxic”.

`Cc1ccc(CN2CCN(C(=S)SCc3ccccc3)CC2)cc1` was tested. Which Activity (Schistosoma mansoni [3]) did it give?
The Activity was “Active”.

Which Activity (Schistosoma mansoni [3]) does the source give for `CCCCCN(CCCCC)C(=S)SCc1ccccc1` here?
The Activity was “inactive”.

With `CCCCCCN(CCCCCC)C(=S)SCc1ccccc1` as the compound, how does the Activity (Schistosoma mansoni [3]) read?
Its Activity is “inactive”.

Which Activity (Schistosoma mansoni [14]) does the source give for `CCN(CC)C(=S)S/C=C/c1ccccc1` here?
Its Activity is “Active”.

With `CCN(CC)C(=S)SC(c1ccccc1)c1ccccc1` as the compound, how does the Activity (Schistosoma mansoni [1]) read?
Its Activity is “Active”.

With `CCN(CC)C(=S)SCC(=O)OC` as the compound, how does the Activity (Schistosoma mansoni [1]) read?
The Activity was “Active”.

How did the Activity (Schistosoma mansoni [3]) turn out when `CCN(CC)C(=S)SCc1ccncc1` was run?
Its Activity is “inactive”.
